Tests used:
Test in all cases: KinaseProfiler
Type in all cases: biochemical
Conditions in all cases: 10 μM, ATP near Km
TrkA = TrkA (Homo sapiens, UniProt P04629); design: purchased Millipore, Inc. (KinaseProfiler service)
Experimental: A representative compound (Example 15) of the invention was tested for off-target kinase activity at a concentration of 10 μM by Millipore, Inc. in their KinaseProfiler™ service against all the kinases available in their full kinase panel. The compound was run in duplicate at a concentration of ATP near the Km for each individual kinase according to Millipore's specifications. The results are shown in Table B. Data are reported as percent of control (POC) and are the average of the two replicates.

PDK1 = target: T1, PDK1 (Homo sapiens, UniProt O15530)
T1 construct: purchased Millipore, Inc. (KinaseProfiler service)
How it was run: (§1)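 Single-point panel screen: compound fixed at 10 μM, ATP set near each enzyme's Km, two replicates per kinase; results expressed as POC averaged across replicates.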

IGF-1R = target: T2, IGF-1R (Homo sapiens, UniProt P08069)
T2 construct: purchased Millipore, Inc. (KinaseProfiler service)
How it was run: as §1

BrSK2 = target: T3, BrSK2 (Homo sapiens, UniProt Q8IWQ3)
T3 construct: purchased Millipore (KinaseProfiler service)
How it was run: as §1

FGFR3 = target: T4, FGFR3 (Homo sapiens, UniProt P22607)
T4 construct: purchased Millipore, Inc. (KinaseProfiler service)
How it was run: as §1

NEK11 = target: T5, NEK11 (Homo sapiens, UniProt Q8NG66)
T5 construct: purchased Millipore, Inc. (KinaseProfiler service)
How it was run: as §1

PKCepsilon = target: T6, PKCepsilon (Homo sapiens, UniProt Q02156)
T6 construct: purchased Millipore, Inc. (KinaseProfiler service)
How it was run: as §1

DRAK1 = target: T7, DRAK1 (Homo sapiens, UniProt Q9UEE5)
T7 construct: purchased Millipore, Inc. (KinaseProfiler service)
How it was run: as §1

MAPKAP-K3 = target: T8, MAPKAP-K3 (Homo sapiens, UniProt Q16644)
T8 construct: purchased Millipore, Inc. (KinaseProfiler service)
How it was run: as §1

CAMK4 = target: T9, CAMK4 (Homo sapiens, UniProt Q16566)
T9 construct: purchased Millipore (KinaseProfiler service)
How it was run: as §1

STK33 = target: T10, STK33 (Homo sapiens, UniProt Q9BYT3)
T10 construct: purchased Millipore, Inc. (KinaseProfiler service)
How it was run: as §1

DAPK1 = target: T11, DAPK1 (Homo sapiens, UniProt P53355)
T11 construct: purchased Millipore, Inc. (KinaseProfiler service)
How it was run: as §1

Haspin = target: T12, Haspin (Homo sapiens, UniProt Q8TF76)
T12 construct: purchased Millipore, Inc. (KinaseProfiler service)
How it was run: as §1

JAK2 = target: T13, JAK2 (Homo sapiens, UniProt O60674)
T13 construct: purchased Millipore, Inc. (KinaseProfiler service)
How it was run: as §1

Axl = target: T14, Axl (Homo sapiens, UniProt P30530)
T14 construct: purchased Millipore (KinaseProfiler service)
How it was run: as §1

BrSK1 = target: T15, BrSK1 (Homo sapiens, UniProt Q8TDC3)
T15 construct: purchased Millipore (KinaseProfiler service)
How it was run: as §1

Hck = target: T16, Hck (Homo sapiens, UniProt P08631)
T16 construct: purchased Millipore, Inc. (KinaseProfiler service)
How it was run: as §1

EphA3 = target: T17, EphA3 (Homo sapiens, UniProt P29320)
T17 construct: purchased Millipore, Inc. (KinaseProfiler service)
How it was run: as §1

p38beta = target: T18, p38beta (Homo sapiens, UniProt Q15759)
T18 construct: purchased Millipore, Inc. (KinaseProfiler service)
How it was run: as §1

Flt1 = target: T19, Flt1 (Homo sapiens, UniProt P17948)
T19 construct: purchased Millipore, Inc. (KinaseProfiler service)
How it was run: as §1

AKT2 = target: T20, AKT2 (Homo sapiens, UniProt P31751)
T20 construct: purchased Millipore (KinaseProfiler service)
How it was run: as §1

TEC Activated = target: T21, TEC Activated (Homo sapiens, UniProt P42680)
T21 construct: purchased Millipore, Inc. (KinaseProfiler service)
How it was run: as §1

MYLK = target: T22, MYLK (Homo sapiens, UniProt Q15746)
T22 construct: purchased Millipore, Inc. (KinaseProfiler service)
How it was run: as §1

p38gamma = target: T23, p38gamma (Homo sapiens, UniProt P53778)
T23 construct: purchased Millipore, Inc. (KinaseProfiler service)
How it was run: as §1

CAMK2g = target: T24, CAMK2g (Homo sapiens, UniProt Q13555)
T24 construct: purchased Millipore (KinaseProfiler service)
How it was run: as §1

EphA8 = target: T25, EphA8 (Homo sapiens, UniProt P29322)
T25 construct: purchased Millipore, Inc. (KinaseProfiler service)
How it was run: as §1

Flt4 = target: T26, Flt4 (Homo sapiens, UniProt P35916)
T26 construct: purchased Millipore, Inc. (KinaseProfiler service)
How it was run: as §1

SRC = target: T27, SRC (Homo sapiens, UniProt P12931)
T27 construct: purchased Millipore, Inc. (KinaseProfiler service)
How it was run: as §1

Met = target: T28, Met (Homo sapiens, UniProt P08581)
T28 construct: purchased Millipore, Inc. (KinaseProfiler service)
How it was run: as §1

FAK2 = target: T29, FAK2 (Homo sapiens, UniProt Q14289)
T29 construct: purchased Millipore, Inc. (KinaseProfiler service)
How it was run: as §1

PKCalpha = target: T30, PKCalpha (Homo sapiens, UniProt P17252)
T30 construct: purchased Millipore, Inc. (KinaseProfiler service)
How it was run: as §1

CDK7/cyclinH/MAT1 = target: T31, CDK7/cyclinH/MAT1 (Homo sapiens, UniProt P50613)
T31 construct: purchased Millipore, Inc. (KinaseProfiler service)
How it was run: as §1

SGK3 = target: T32, SGK3 (Homo sapiens, UniProt Q96BR1)
T32 construct: purchased Millipore, Inc. (KinaseProfiler service)
How it was run: as §1

JAK3 = target: T33, JAK3 (Homo sapiens, UniProt P52333)
T33 construct: purchased Millipore, Inc. (KinaseProfiler service)
How it was run: as §1

PRKG1beta = target: T34, PRKG1beta (Homo sapiens, UniProt Q13976)
T34 construct: purchased Millipore, Inc. (KinaseProfiler service)
How it was run: as §1

TSSK2 = target: T35, TSSK2 (Homo sapiens, UniProt Q96PF2)
T35 construct: purchased Millipore, Inc. (KinaseProfiler service)
How it was run: as §1

FGFR2 = target: T36, FGFR2 (Homo sapiens, UniProt P21802)
T36 construct: purchased Millipore, Inc. (KinaseProfiler service)
How it was run: as §1

Sequence of TrkA (P04629 33-796): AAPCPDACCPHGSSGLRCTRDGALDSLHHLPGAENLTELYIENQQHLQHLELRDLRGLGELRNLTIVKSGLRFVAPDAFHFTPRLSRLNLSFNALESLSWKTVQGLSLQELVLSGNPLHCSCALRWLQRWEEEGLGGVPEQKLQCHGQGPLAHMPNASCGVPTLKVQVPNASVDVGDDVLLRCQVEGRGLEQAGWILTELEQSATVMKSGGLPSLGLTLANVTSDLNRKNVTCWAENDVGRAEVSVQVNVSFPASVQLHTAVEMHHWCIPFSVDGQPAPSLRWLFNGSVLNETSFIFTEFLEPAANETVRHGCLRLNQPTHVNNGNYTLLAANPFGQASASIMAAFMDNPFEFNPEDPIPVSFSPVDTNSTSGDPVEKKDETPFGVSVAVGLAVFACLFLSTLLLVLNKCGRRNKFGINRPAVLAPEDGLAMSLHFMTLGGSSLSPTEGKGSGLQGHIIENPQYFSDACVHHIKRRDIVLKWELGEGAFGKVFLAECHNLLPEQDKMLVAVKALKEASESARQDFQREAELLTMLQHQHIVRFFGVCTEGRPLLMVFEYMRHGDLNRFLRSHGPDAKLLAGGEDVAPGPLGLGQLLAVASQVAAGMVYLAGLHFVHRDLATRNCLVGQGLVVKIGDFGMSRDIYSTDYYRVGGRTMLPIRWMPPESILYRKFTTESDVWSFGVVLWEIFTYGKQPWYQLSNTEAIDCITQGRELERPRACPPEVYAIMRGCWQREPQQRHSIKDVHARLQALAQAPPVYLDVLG
T14 sequence (P30530 26-894): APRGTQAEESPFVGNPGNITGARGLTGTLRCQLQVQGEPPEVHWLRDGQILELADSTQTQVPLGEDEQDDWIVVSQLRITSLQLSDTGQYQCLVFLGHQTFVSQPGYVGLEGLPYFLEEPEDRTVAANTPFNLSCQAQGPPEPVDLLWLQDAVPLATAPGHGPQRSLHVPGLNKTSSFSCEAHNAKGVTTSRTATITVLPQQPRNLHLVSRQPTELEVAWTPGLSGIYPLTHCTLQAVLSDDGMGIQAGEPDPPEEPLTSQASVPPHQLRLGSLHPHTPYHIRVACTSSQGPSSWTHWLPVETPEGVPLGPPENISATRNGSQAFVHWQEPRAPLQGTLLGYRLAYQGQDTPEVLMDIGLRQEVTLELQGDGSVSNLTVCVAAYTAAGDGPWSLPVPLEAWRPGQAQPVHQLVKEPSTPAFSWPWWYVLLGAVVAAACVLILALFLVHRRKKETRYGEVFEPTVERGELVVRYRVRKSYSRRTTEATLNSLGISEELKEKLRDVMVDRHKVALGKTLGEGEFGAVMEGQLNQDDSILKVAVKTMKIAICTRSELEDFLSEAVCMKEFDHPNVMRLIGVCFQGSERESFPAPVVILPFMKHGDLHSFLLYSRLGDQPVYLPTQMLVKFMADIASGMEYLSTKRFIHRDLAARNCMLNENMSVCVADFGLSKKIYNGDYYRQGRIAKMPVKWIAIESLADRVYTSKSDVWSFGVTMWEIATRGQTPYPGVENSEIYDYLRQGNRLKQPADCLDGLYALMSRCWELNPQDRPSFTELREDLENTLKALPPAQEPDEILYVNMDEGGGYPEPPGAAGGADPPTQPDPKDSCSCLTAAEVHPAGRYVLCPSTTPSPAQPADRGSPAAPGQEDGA
T16 sequence (P08631 whole entry): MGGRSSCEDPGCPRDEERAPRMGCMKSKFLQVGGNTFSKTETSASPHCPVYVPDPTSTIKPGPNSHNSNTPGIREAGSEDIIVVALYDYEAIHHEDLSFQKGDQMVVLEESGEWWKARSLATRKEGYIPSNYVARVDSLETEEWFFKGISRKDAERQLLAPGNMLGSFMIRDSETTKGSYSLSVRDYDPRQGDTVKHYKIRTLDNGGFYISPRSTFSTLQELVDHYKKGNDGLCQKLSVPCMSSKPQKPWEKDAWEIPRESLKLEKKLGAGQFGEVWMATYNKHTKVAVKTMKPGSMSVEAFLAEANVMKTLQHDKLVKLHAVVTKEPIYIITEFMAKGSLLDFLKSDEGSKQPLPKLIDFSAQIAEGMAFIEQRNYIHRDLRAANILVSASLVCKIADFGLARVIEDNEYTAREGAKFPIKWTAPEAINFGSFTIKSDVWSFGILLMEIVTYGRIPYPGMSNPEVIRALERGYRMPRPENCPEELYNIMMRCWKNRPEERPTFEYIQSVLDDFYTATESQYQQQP
T12 sequence (Q8TF76 whole entry): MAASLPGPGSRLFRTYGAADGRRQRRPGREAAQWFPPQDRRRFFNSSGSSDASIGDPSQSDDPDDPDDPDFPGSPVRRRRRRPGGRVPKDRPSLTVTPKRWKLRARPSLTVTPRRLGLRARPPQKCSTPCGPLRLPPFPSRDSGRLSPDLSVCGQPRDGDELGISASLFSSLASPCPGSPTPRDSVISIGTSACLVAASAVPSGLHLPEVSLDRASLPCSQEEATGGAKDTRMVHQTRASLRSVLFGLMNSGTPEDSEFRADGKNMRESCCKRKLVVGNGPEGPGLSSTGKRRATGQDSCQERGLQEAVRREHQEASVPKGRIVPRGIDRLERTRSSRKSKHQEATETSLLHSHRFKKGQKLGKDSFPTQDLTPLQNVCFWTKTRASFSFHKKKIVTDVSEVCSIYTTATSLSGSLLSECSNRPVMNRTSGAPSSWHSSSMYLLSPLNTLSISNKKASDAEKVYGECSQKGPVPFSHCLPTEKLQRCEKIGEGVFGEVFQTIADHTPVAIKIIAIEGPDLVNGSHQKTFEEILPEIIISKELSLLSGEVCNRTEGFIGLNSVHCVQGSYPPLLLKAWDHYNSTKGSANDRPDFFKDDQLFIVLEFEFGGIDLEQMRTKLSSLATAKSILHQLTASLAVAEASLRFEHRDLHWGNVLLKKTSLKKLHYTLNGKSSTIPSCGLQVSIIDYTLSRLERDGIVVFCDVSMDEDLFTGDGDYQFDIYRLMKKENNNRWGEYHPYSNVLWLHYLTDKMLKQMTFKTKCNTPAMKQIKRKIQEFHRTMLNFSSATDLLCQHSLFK
T15 sequence (Q8TDC3 whole entry): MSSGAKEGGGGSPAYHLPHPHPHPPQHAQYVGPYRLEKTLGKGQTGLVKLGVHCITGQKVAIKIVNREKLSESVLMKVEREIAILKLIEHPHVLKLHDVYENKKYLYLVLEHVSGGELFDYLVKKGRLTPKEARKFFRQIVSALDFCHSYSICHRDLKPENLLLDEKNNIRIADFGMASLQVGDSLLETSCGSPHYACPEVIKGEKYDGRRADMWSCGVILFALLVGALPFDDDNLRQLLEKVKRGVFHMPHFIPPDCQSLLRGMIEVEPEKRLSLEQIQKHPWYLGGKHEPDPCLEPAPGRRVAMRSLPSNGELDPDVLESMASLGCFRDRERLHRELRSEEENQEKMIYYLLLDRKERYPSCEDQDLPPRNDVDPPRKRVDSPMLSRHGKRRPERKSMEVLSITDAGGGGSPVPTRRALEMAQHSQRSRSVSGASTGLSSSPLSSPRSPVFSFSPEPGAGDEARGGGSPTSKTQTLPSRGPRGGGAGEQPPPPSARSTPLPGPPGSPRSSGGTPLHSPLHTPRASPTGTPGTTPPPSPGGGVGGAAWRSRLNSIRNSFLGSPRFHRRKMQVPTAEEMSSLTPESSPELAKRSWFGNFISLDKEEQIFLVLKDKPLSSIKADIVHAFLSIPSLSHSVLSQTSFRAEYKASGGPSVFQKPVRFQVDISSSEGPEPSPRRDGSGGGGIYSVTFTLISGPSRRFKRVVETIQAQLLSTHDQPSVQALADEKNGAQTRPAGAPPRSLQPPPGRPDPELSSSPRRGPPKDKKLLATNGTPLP
T34 sequence (Q13976 1-686 isoform Q13976-2): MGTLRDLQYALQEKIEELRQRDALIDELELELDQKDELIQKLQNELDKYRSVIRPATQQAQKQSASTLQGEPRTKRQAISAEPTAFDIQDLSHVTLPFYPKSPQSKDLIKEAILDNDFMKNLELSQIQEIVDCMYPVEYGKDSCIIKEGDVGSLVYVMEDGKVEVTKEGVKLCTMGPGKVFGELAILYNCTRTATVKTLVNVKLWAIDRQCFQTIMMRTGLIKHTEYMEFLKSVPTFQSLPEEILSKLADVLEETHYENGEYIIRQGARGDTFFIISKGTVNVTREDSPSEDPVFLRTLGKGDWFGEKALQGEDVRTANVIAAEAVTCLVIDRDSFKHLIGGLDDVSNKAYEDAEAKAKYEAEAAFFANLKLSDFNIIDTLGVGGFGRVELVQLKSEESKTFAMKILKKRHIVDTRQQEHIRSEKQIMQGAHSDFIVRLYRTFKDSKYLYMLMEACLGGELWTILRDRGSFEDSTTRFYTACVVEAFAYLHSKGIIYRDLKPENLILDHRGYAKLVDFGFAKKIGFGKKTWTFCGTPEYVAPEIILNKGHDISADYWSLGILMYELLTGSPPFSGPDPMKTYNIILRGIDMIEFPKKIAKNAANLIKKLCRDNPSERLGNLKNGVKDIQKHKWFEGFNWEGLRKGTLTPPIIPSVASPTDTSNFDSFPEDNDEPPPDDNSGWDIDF
T10 sequence (Q9BYT3 whole entry): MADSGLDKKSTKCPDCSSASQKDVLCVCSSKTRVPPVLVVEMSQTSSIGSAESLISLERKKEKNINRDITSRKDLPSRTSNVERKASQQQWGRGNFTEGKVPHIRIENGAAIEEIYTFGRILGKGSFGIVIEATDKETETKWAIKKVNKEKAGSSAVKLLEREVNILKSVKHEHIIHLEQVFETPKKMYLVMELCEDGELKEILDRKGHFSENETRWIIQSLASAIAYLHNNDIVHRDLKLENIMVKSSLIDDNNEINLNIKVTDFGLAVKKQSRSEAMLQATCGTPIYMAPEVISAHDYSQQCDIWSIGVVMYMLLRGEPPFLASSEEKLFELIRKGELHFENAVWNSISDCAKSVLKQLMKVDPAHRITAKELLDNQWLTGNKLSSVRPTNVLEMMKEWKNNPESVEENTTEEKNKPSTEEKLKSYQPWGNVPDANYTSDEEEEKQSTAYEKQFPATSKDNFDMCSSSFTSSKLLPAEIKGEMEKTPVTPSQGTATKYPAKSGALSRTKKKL

- Avg POC (TrkA): 0 POC
- Avg POC (PDK1): 116.5 POC
- Avg POC (IGF-1R): 85 POC
- Avg POC (BrSK2): 123 POC
- Avg POC (FGFR3): 106.5 POC
- Avg POC (NEK11): 75 POC
- Avg POC (PKCepsilon): 97 POC
- Avg POC (DRAK1): 135.5 POC
- Avg POC (MAPKAP-K3): 112.5 POC
- Avg POC (CAMK4): 132 POC
- Avg POC (STK33): 104.5 POC
- Avg POC (DAPK1): 121.5 POC
- Avg POC (Haspin): 121.5 POC
- Avg POC (JAK2): 111.5 POC
- Avg POC (Axl): 107 POC
- Avg POC (BrSK1): 123.5 POC
- Avg POC (Hck): 89 POC
- Avg POC (EphA3): 117 POC
- Avg POC (p38beta): 106.5 POC
- Avg POC (Flt1): 97.5 POC
- Avg POC (AKT2): 166.5 POC
- Avg POC (TEC Activated): 101.5 POC
- Avg POC (MYLK): 111.5 POC
- Avg POC (p38gamma): 108 POC
- Avg POC (CAMK2g): 103 POC
- Avg POC (EphA8): 127.5 POC
- Avg POC (Flt4): 91 POC
- Avg POC (SRC): 90 POC
- Avg POC (Met): 110.5 POC
- Avg POC (FAK2): 102.5 POC
- Avg POC (PKCalpha): 104 POC
- Avg POC (CDK7/cyclinH/MAT1): 106 POC
- Avg POC (SGK3): 132 POC
- Avg POC (JAK3): 111 POC
- Avg POC (PRKG1beta): 130 POC
- Avg POC (TSSK2): 114.5 POC
- Avg POC (FGFR2): 108 POC
SMILES: COCCCc1cc(Cl)c(Cl)cc1NC(=O)Nc1c(C)c(-c2cnn(C)c2)nn1-c1ccccc1 [Example 15, 1-(4,5-dichloro-2-(3-methoxypropyl)phenyl)-3-(1′,4-dimethyl-1-phenyl-1H,1′H-[3,4′-bipyrazol]-5-yl)urea]

Source: patent publication US9790210B2, “N-(monocyclic aryl),N'-pyrazolyl-urea, thiourea, guanidine and cyanoguanidine compounds as TrkA kinase inhibitors” (Array BioPharma Inc., priority 2012, dated 2017)
